The target in this test is T1, Activated human p38α (Homo sapiens, UniProt Q16539).
T1 construct: purchased Upstate Biotechnology Inc. 14-251
T1 sequence (Q16539 whole entry): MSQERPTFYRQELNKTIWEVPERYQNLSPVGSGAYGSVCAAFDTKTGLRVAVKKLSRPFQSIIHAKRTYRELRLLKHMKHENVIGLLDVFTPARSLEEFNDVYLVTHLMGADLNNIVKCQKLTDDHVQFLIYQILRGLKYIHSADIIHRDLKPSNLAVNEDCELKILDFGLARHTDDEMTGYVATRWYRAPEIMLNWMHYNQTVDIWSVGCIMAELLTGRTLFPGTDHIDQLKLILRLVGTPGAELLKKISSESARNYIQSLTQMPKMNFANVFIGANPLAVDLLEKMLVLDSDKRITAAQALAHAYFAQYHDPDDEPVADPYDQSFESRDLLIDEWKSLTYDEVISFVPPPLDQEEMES
The experiment in a line: p38MAP kinase inhibition test. The format is biochemical. As to conditions: at a concentration of 1 μmol/L; substrate myelin basic protein, ATP 20 μmol/L, [γ-32P]ATP; read-out: enzyme inhibitory activity. An outline of the steps:
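Radiometric kinase assay with myelin basic protein (20 μg/assay) as substrate, 20 μmol/L ATP plus [γ-32P]ATP, MOPS pH 7.2 with MgCl2 18.75 mmol/L. Reaction run 15 min at 30° C., stopped with phosphoric acid; 32P-MBP captured on phosphocellulose and counted by scintillation.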
As for `CC(C)Nc1ncc2cc(-c3ccccc3Cl)c(OCCC(=O)O)cc2n1` [Compound 30, 7-(2-Carboxyethyloxy)-6-(2-chlorophenyl)-2-isopropylaminoquinazoline], the inhibition at 1 µM is not below 50%. The result for `CCCOC(=O)c1c(O)c(-c2ccccc2Cl)cc2cnc(NC(C)C)nc12` [Compound 63, 6-(2-Chlorophenyl)-7-hydroxy-2-isopropylamino-8-(propoxycarbonyl)quinazoline] reads not below 50%; that for `CC(C)Nc1ncc2cc(-c3cccc(NC(=O)c4ccnc(N5CCOCC5)c4)c3)ccc2n1` [Compound 257, 2-Isopropylamino-6-{3-[(2-morpholinopyridin-4-yl)carbonylamino]phenyl}quinazoline], not below 50%.

Consider `COc1cc2nc(N[C@H](C)c3ccccc3)ncc2cc1-c1ccccc1Cl` [Compound 8, (R)-6-(2-Chlorophenyl)-7-methoxy-2-[(1-phenylethyl)amino]quinazoline], for which the inhibition at 1 µM is not below 50%.

With `CCN(CC)C(=O)c1c(OC)c(-c2ccccc2Cl)cc2cnc(NC(C)C)nc12` [Compound 68, 6-(2-Chlorophenyl)-8-(N,N-diethylaminocarbonyl)-2-isopropylamino-7-methoxyquinazoline], the inhibition at 1 µM was not below 50%. For the compound `COc1cc2nc(NC(C)C)ncc2cc1-c1ccccc1C(=O)O` [Compound 185, 6-(2-Carboxyphenyl)-2-isopropylamino-7-methoxyquinazoline], the inhibition at 1 µM was not below 50%. For `CCCS(=O)(=O)N1CCC(Nc2ncc3cc(-c4ccccc4Cl)c(OC)cc3n2)CC1` [Compound 148, 6-(2-Chlorophenyl)-7-methoxy-2-[1-(1-propylsulfonyl)piperidin-4-ylamino]quinazoline], the inhibition at 1 µM is not below 50%. The result for `N[C@H]1CC[C@H](Nc2ncc3cc(C(=O)c4ccccc4)c(O)cc3n2)CC1` [Compound 139, 2-(trans-4-Aminocyclohexylamino)-6-benzoyl-7-hydroxyquinazoline] reads not below 50%.

For the compound `COc1cc2nc(NC(C)C)ncc2cc1-c1ccccc1NC(C)=O` [Compound 56, 6-[2-(Acetylamino)phenyl]-2-isopropylamino-7-methoxyquinazoline], the inhibition at 1 µM was not below 50%. The result for `COc1cc2nc(NC(C)C)ncc2cc1-c1cccc(NC(=O)c2cccc(F)c2)c1` [Compound 219, 6-{3-[(3-Fluorophenyl)carbonylamino]phenyl}-2-isopropylamino-7-methoxyquinazoline] reads not below 50%. As to `CC(C)Nc1ncc2cc(-c3ccccc3Cl)c(O)c(-c3c(F)cccc3F)c2n1` [Compound 102, 6-(2-Chlorophenyl)-8-(2,6-difluorophenyl)-7-hydroxy-2-(isopropylamino)quinazoline], the inhibition at 1 µM is not below 50%. The result for `Cc1ccc(NC(=O)c2ccnc(N3CCOCC3)c2)cc1-c1ccc2nc(NC(C)C)ncc2c1` [Compound 256, 2-Isopropylamino-6-{2-methyl-5-[(2-morpholinopyridin-4-yl)carbonylamino]phenyl}quinazoline] reads not below 50%; that for `CC(C)Nc1ncc2cc(-c3ccccc3Cl)c(-c3cccc(C(=O)O)c3)cc2n1` [Compound 42, 7-(3-Carboxyphenyl)-6-(2-chlorophenyl)-2-isopropylaminoquinazoline], not below 50%; that for `COc1cc2nc(NC(C)C)ncc2cc1-c1ccc(F)cc1F` [Compound 3, 6-(2,4-Difluorophenyl)-2-isopropylamino-7-methoxyquinazoline], not below 50%. The same measure for `Cc1ccc(NC(=O)c2ccccn2)cc1-c1ccc2nc(NC(C)C)ncc2c1` [Compound 262, 2-Isopropylamino-6-{2-methyl-5-(2-pyridylcarbonylamino)phenyl}quinazoline]: not below 50%. For `CC(C)Nc1ncc2cc(-c3ccccc3Cl)c(-c3cccc(Cl)c3)cc2n1` [Compound 43, 6-(2-Chlorophenyl)-7-(3-chlorophenyl)-2-isopropylaminoquinazoline], the inhibition at 1 µM was not below 50%. `COc1cc2nc(NC(C)C)ncc2cc1-c1cccc(OC(C)=O)c1` [Compound 202, 6-(3-Acetoxyphenyl)-2-isopropylamino-7-methoxyquinazoline]: the inhibition at 1 µM was not below 50%. The same measure for `CC(=O)Nc1ccc(C)c(-c2cc3cnc(NC(C)C)nc3cc2O)c1` [Compound 289, 6-(5-Acetylamino-2-methylphenyl)-7-hydroxy-2-(isopropylamino)quinazoline]: not below 50%; for `COc1cc2nc(NC(C)C)ncc2cc1-c1cccc(NC(=O)C2CCC2)c1` [Compound 222, 6-[3-(Cyclobutylcarbonylamino)phenyl]-2-isopropylamino-7-methoxyquinazoline]: not below 50%. For the compound `COc1cc2nc(NC(C)C)ncc2cc1-c1ccccc1C` [Compound 191, 2-Isopropylamino-7-methoxy-6-(2-methylphenyl)quinazoline], the inhibition at 1 µM was not below 50%. For the compound `CCCC(CCC)Nc1ncc2cc(-c3ccccc3C)c(O)cc2n1` [Compound 174, 7-Hydroxy-6-(2-methylphenyl)-2-(4-heptylamino)quinazoline], the inhibition at 1 µM is not below 50%. Take `COc1cc2nc(NC(C)C)ncc2cc1C(=O)c1cccc(F)c1` [Compound 116, 6-(3-Fluorobenzoyl)-2-isopropylamino-7-methoxyquinazoline]: the inhibition at 1 µM is not below 50%.

Take `CC(=O)c1c(O)c(-c2ccccc2Cl)cc2cnc(NC(C)C)nc12` [Compound 78, 8-Acetyl-6-(2-chlorophenyl)-7-hydroxy-2-(isopropylamino)quinazoline]: the inhibition at 1 µM was not below 50%. Consider `COc1cc2nc(NC(C)C)ncc2cc1C(=O)c1ccccc1C` [Compound 113, 2-Isopropylamino-7-methoxy-6-(2-methylbenzoyl)quinazoline], for which the inhibition at 1 µM was not below 50%. The result for `CC(C)Nc1ncc2cc(-c3ccccc3Cl)c(O)c(I)c2n1` [Compound 88, 6-(2-Chlorophenyl)-7-hydroxy-8-iodo-2-(isopropylamino)quinazoline] reads not below 50%; that for `COc1cc2nc(NC(C)C)ncc2cc1-c1cccc(NC(=O)c2cccc(N(C)C)c2)c1` [Compound 54, 2-Isopropylamino-7-methoxy-6-{3-[(3-dimethylaminophenyl)carbonylamino]phenyl}quinazoline], not below 50%. The same measure for `CCOC(=O)N1CCC(Nc2ncc3cc(C(=O)c4ccccc4)c(O)cc3n2)CC1` [Compound 137, 6-Benzoyl-2-[1-(ethoxycarbonyl)piperidin-4-ylamino]-7-hydroxyquinazoline]: not below 50%.

On to `CC(C)Nc1ncc2cc(-c3ccccc3Cl)c(OCC(C)(C)O)cc2n1` [Compound 34, 6-(2-Chlorophenyl)-7-(2-hydroxy-2-methylpropyloxy)-2-isopropylaminoquinazoline], for which the inhibition at 1 µM was not below 50%.

In the case of `CC(C)Nc1ncc2cc(-c3ccccc3Cl)c(OCc3ccc(C(=O)O)cc3)cc2n1` [Compound 28, 7-(4-Carboxyphenylmethyloxy)-6-(2-chlorophenyl)-2-isopropylaminoquinazoline], the inhibition at 1 µM is not below 50%. The same measure for `COc1cc2nc(NC3CCN(S(=O)(=O)C(F)(F)F)CC3)ncc2cc1-c1ccccc1Cl` [Compound 13, 6-(2-Chlorophenyl)-7-methoxy-2-[1-(trifluoromethylsulfonyl)piperidin-4-ylamino]quinazoline]: not below 50%.

Turning to `CC(C)Nc1ncc2cc(-c3cccc([N+](=O)[O-])c3)c(OCc3ccccc3)cc2n1` [Compound 282, 7-Benzyloxy-2-isopropylamino-6-(3-nitrophenyl)quinazoline], the inhibition at 1 µM is not below 50%. As to `CC(C)Nc1ncc2cc(-c3ccccc3Cl)c(OCCCO)cc2n1` [Compound 24, 6-(2-Chlorophenyl)-7-(3-hydroxypropyloxy)-2-isopropylaminoquinazoline], the inhibition at 1 µM is not below 50%.

Turning to `CC(C)Nc1ncc2cc(-c3ccccc3Cl)c(-c3ccc(C(=O)O)cc3)cc2n1` [Compound 41, 7-(4-Carboxyphenyl)-6-(2-chlorophenyl)-2-isopropylaminoquinazoline], the inhibition at 1 µM is not below 50%.

Take `COc1cc2nc(NC(C)C)ncc2cc1-c1ccccc1C(=O)N1CCOCC1` [Compound 188, 2-Isopropylamino-7-methoxy-6-[2-(morpholinocarbonyl)phenyl]quinazoline]: the inhibition at 1 µM is not below 50%. The result for `COc1cc2nc(NC3CCOCC3)ncc2cc1-c1ccccc1Cl` [Compound 11, 6-(2-Chlorophenyl)-7-methoxy-2-(4-tetrahydropyranylamino)quinazoline] reads not below 50%; that for `CC(C)Nc1ncc2cc(C(=O)c3ccccc3F)c(O)cc2n1` [Compound 126, 6-(2-Fluorobenzoyl)-7-hydroxy-2-(isopropylamino)quinazoline], not below 50%; that for `Cc1ccccc1C(=O)c1cc2cnc(NC(C)C)nc2cc1O` [Compound 119, 7-Hydroxy-2-isopropylamino-6-(2-methylbenzoyl)quinazoline], not below 50%. On to `CC(C)Nc1ncc2cc(-c3ccccc3Cl)c(OCC#N)cc2n1` [Compound 21, 6-(2-Chlorophenyl)-7-cyanomethyloxy-2-isopropylaminoquinazoline], for which the inhibition at 1 µM is not below 50%. The same measure for `COc1cc2nc(NC(C)C)ncc2cc1-c1ccco1` [Compound 208, 6-(2-Furyl)-2-isopropylamino-7-methoxyquinazoline]: not below 50%. The result for `CNc1ncc2cc(-c3cc(NC(=O)c4ccc[nH]4)ccc3C)c(OC)cc2n1` [Compound 251, 7-Methoxy-2-methylamino-6-{2-methyl-5-[(1H-pyrrol-2-yl)carbonylamino]phenyl}quinazoline] reads not below 50%. For `CC(C)Nc1ncc2cc(-c3ccccc3Cl)c(OCC(N)=O)cc2n1` [Compound 35, 7-(Carbamoylmethyloxy)-6-(2-chlorophenyl)-2-isopropylaminoquinazoline], the inhibition at 1 µM is not below 50%.

(Values after patent publication US7906522B2, “2-aminoquinazoline derivatives” (Kyowa Hakko Kirin Co., Ltd, priority 2005, dated 2011).)
